Test results from US4820695A, “C-20-dihydro-deoxy-(cyclic amino)-derivatives of macrolide antibiotics” (priority 1987, dated 1989).
Values after ≈ are worked out from the molar mass of the structure shown. Where two headings read alike, the source gives them in different places.

Key:
[1] = test system: Streptococcus pyogenes C203; test: ED50 in mice experimentally infected with S. pyogenes C203 (Table XI); format: in vivo; conditions: Streptococcus pyogenes, doses given 1 and 4 hours postinfection, read-out: ED50
Outline: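 Protective ED50 (mg/kg × 2) was determined as the dose sparing half the animals. Test compound was given twice, at 1 and 4 hours after experimental S. pyogenes C203 infection of mice.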

[2] = test system: Haemophilus influenzae C.L.; test: MIC, standard agar-dilution assay (Table IX); format: cell-based; conditions: Ampicillin-sensitive strain, read-out: MIC
Escherichia coli N10 = test: MIC, standard agar-dilution assay (Table IX); format: cell-based; conditions: read-out: MIC
[3] = test system: Staphylococcus epidermidis EPI1; test: MIC, standard agar-dilution assay (Table IX); format: cell-based; conditions: Staphylococcus epidermidis EPI1; agar-dilution; read-out: MIC
[4] = test system: Streptococcus pyogenes C203; test: MIC, standard agar-dilution assay (Table IX); format: cell-based; conditions: read-out: MIC
Streptococcus sp. 19F = test: MIC, broth-dilution microtiter test (Table X); format: cell-based; conditions: read-out: MIC
Description: (§1) The MIC's in Table X were obtained using conventional broth-dilution microtiter tests.

[5] = test system: Pasteurella hemolytica 22C; test: MIC, broth-dilution microtiter test (Table X); format: cell-based; conditions: read-out: MIC
Description: as §1

Mycoplasma synoviae 40A = test: MIC, broth-dilution microtiter test (Table X); format: cell-based; conditions: Mycoplasmopsis synoviae, read-out: MIC
Description: as §1

[6] = test system: Mycoplasma hyopneumoniae S5972; test: MIC, broth-dilution microtiter test (Table X); format: cell-based; conditions: Mesomycoplasma hyopneumoniae, read-out: MIC
Description: as §1

[7] = test system: Pasteurella multocida 17E; test: MIC, broth-dilution microtiter test (Table X); format: cell-based; conditions: Bovine isolate, read-out: MIC
Description: as §1

Mycoplasma hyorhinis 29E = test: MIC, broth-dilution microtiter test (Table X); format: cell-based; conditions: read-out: MIC
Description: as §1

[8] = test system: Pasteurella multocida 60A; test: MIC, broth-dilution microtiter test (Table X); format: cell-based; conditions: Avian isolate, read-out: MIC
Description: as §1

[9] = test system: Mycoplasma gallisepticum 29C; test: MIC, broth-dilution microtiter test (Table X); format: cell-based; conditions: Mycoplasmoides gallisepticum, read-out: MIC
Description: as §1

Staphylococcus aureus = test: MIC, broth-dilution microtiter test (Table X); format: cell-based; conditions: read-out: MIC
Description: as §1

[10] = test system: Staphylococcus aureus V41; test: MIC, standard agar-dilution assay (Table IX); format: cell-based; conditions: Staphylococcus aureus V41, Penicillin-resistant strain, read-out: MIC
[11] = test system: Streptococcus Group D X66; test: MIC, standard agar-dilution assay (Table IX); format: cell-based; conditions: read-out: MIC
Pasteurella multocida [12] = test: Pasteurella infection in one-day-old chicks, medicated drinking water (Table XIII); format: in vivo; conditions: Administered in the available drinking water at 2 g/gal
Outline: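 Oral dosing was by medicated drinking water (2 g/gal), offered from 4–20 h pre-infection and through a 3-day observation period. The chicks, one day old, were infected s.c. with 0.1 ml of a 10^-4-diluted, 20-h tryptose broth culture of avian Pasteurella multocida.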

Escherichia coli TEM = test: MIC, standard agar-dilution assay (Table IX); format: cell-based; conditions: read-out: MIC
Group D strain 9960 = test: MIC, standard agar-dilution assay (Table IX); format: cell-based, Streptococcus Group D; conditions: tested using predecessor Group D strain 9960
Escherichia coli EC14 = test: MIC, standard agar-dilution assay (Table IX); format: cell-based; conditions: read-out: MIC
Staphyloccus aureus X1.1 = test: MIC, standard agar-dilution assay (Table IX); format: cell-based, Staphylococcus aureus; conditions: Staphylococcus aureus, read-out: MIC
[13] = test system: Staphylococcus aureus S13E; test: MIC, standard agar-dilution assay (Table IX); format: cell-based; conditions: Staphylococcus aureus, S13E
Pasteurella multocida [14] = test: Pasteurella infection in one-day-old chicks, subcutaneous administration (Table XII); format: in vivo; conditions: Administered subcutaneously, 30 mg/kg × 2, 1 and 4 hours post-challenge
Outline: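 Treatment was 30 mg/kg s.c., given twice (1 and 4 h after infection). The infection itself was induced in day-old chicks by s.c. injection of 0.1 ml of avian Pasteurella multocida culture (20-h tryptose broth, diluted 10^-4).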

[15] = test system: Staphylococcus aureus X400; test: MIC, standard agar-dilution assay (Table IX); format: cell-based; conditions: Staphylococcus aureus X400, Methicillin-resistant strain, read-out: MIC
[16] = test system: Haemophilus influenzae 76; test: MIC, standard agar-dilution assay (Table IX); format: cell-based; conditions: Haemophilus influenzae 76, Ampicillin-resistant strain, read-out: MIC
Klebsiella X26 = test: MIC, standard agar-dilution assay (Table IX); format: cell-based; conditions: read-out: MIC
[17] = test system: Streptococcus pneumoniae Park I; test: MIC, standard agar-dilution assay (Table IX); format: cell-based; conditions: Streptococcus pneumoniae Park I; agar-dilution; read-out: MIC
[18] = test system: Staphylococcus epidermidis 222; test: MIC, standard agar-dilution assay (Table IX); format: cell-based; conditions: read-out: MIC
[19] = Titratable groups in 66% aqueous DMF (Tables XIV-XVI); format: physicochemical
Description: ^c Run in 66% aqueous DMF
^d Run in 66% aqueous DMF

[20] = test system: Staphylococcus aureus 19C; test: MIC, broth-dilution microtiter test (Table X); format: cell-based
Description: as §1

[21] = test system: Streptococcus Group D 2041; test: MIC, standard agar-dilution assay (Table IX); format: cell-based; conditions: GROUPD2041, read-out: MIC
[22] = Titratable groups (first value)

SMILES | ED50 ([1]; C203, Oral) [mg/kg] | ED50 ([1]; C203, sc, Subcutaneous) [mg/kg] | MIC [2] [µg/mL] | MIC (Escherichia coli N10) [µg/mL] | MIC [3] [µg/mL] | MIC [4] [µg/mL] | MIC (Streptococcus sp. 19F) [µg/mL] | MIC [5] [µg/mL] | MIC (Mycoplasma synoviae 40A) [µg/mL] | MIC [6] [µg/mL] | MIC [7] [µg/mL] | MIC (Mycoplasma hyorhinis 29E) [µg/mL] | MIC [8] [µg/mL] | MIC [9] [µg/mL] | MIC [10] [µg/mL] | MIC [11] [µg/mL] | MIC (Escherichia coli TEM) [µg/mL] | MIC (Escherichia coli EC14) [µg/mL] | MIC (Staphyloccus aureus X1.1) [µg/mL] | MIC [13] [µg/mL] | other results
CCC1OC(=O)CC(O)C(C)C(OC2OC(C)C(O)C(N(C)C)C2O)C(CCN2CCC(c3ccccc3)CC2)CC(C)C(=O)C=CC(C)=CC1COC1OC(C)C(O)C(OC)C1OC (stereo not shown) [Compound D4, 20-DH-DO-20-(4-Phenylpiperidin-1-yl)desmycosin] | 19 | 6 | 8 (≈ 8.72 µM) | 64 (≈ 69.8 µM) | 0.5 (≈ 0.545 µM) | 0.25 (≈ 0.273 µM) | 0.09 (≈ 0.0981 µM) | 6.25 (≈ 6.81 µM) | < 0.05 | 0.78 (≈ 0.85 µM) | 6.25 (≈ 6.81 µM) | 50 (≈ 54.5 µM) | 6.25 (≈ 6.81 µM) | 0.39 (≈ 0.425 µM) | 0.5 (≈ 0.545 µM) | 1 (≈ 1.09 µM) | 32 (≈ 34.9 µM) | 64 (≈ 69.8 µM) | 0.5 (≈ 0.545 µM) | 0.5 (≈ 0.545 µM) | MIC (Staphylococcus aureus): 0.39 µg/mL (≈ 0.425 µM); Number of Deaths/Number Treated (Pasteurella multocida [12]): 6/10; MIC (Group D strain 9960): 2 µg/mL (≈ 2.18 µM); Number of Deaths/Number Treated (Pasteurella multocida [14]): 9/10; MIC [15]: 0.5 µg/mL (≈ 0.545 µM); MIC [16]: 8 µg/mL (≈ 8.72 µM); MIC (Klebsiella X26): 32 µg/mL (≈ 34.9 µM); MIC [17]: 0.25 µg/mL (≈ 0.273 µM); MIC [18]: 0.25 µg/mL (≈ 0.273 µM)
CCC1OC(=O)CC(O)C(C)C(OC2OC(C)C(O)C(N(C)C)C2O)C(CCN2CCCCCCC2)CC(C)C(=O)C=CC(C)=CC1COC1OC(C)C(O)C(O)C1OC (stereo not shown) [Compound L5, 20-DH-DO-20-(octahydroazocin-1-yl)lactenocin] | 100 | 1.8 | 32 (≈ 37.4 µM) | > 128 | 1 (≈ 1.17 µM) | 0.5 (≈ 0.585 µM) | 0.78 (≈ 0.912 µM) | 12.5 (≈ 14.6 µM) | 3.12 (≈ 3.65 µM) | – | 6.25 (≈ 7.31 µM) | 50 (≈ 58.5 µM) | 12.5 (≈ 14.6 µM) | 6.25 (≈ 7.31 µM) | 1 (≈ 1.17 µM) | 16 (≈ 18.7 µM) | 16 (≈ 18.7 µM) | > 128 | 1 (≈ 1.17 µM) | 1 (≈ 1.17 µM) | MIC (Staphylococcus aureus): 1.56 µg/mL (≈ 1.82 µM); MIC (Group D strain 9960): 16 µg/mL (≈ 18.7 µM); pKa ([19]; Titratable groups): 9.3; pKa [19, 22]: 7.8; Number of Deaths/Number Treated (Pasteurella multocida [14]): 0/10; MIC [15]: 2 µg/mL (≈ 2.34 µM); MIC [16]: 6 µg/mL (≈ 7.02 µM); MIC (Klebsiella X26): 16 µg/mL (≈ 18.7 µM); MIC [17]: 0.5 µg/mL (≈ 0.585 µM); MIC [18]: 0.5 µg/mL (≈ 0.585 µM)
CCC1OC(=O)CC(O)C(C)C(OC2OC(C)C(O)C(N(C)C)C2O)C(CCN2CCCCCCC2)CC(C)C(=O)C=CC(C)=CC1COC1OC(C)C(O)C(OC)C1OC (stereo not shown) [Compound D6] | 14 | 0.7 | 16 (≈ 18.4 µM) | 64 (≈ 73.6 µM) | 5 (≈ 5.75 µM) | 0.5 (≈ 0.575 µM) | 0.78 (≈ 0.897 µM) | 1.56 (≈ 1.79 µM) | 0.78 (≈ 0.897 µM) | 1.56 (≈ 1.79 µM) | 3.12 (≈ 3.59 µM) | 50 (≈ 57.5 µM) | 6.25 (≈ 7.19 µM) | 1.56 (≈ 1.79 µM) | 0.5 (≈ 0.575 µM) | 4 (≈ 4.6 µM) | 16 (≈ 18.4 µM) | 64 (≈ 73.6 µM) | 0.5 (≈ 0.575 µM) | 0.5 (≈ 0.575 µM) | MIC (Staphylococcus aureus): 0.78 µg/mL (≈ 0.897 µM); MIC (Group D strain 9960): 8 µg/mL (≈ 9.2 µM); Titratable groups [19]: 7.3; Titratable groups (first value) [19]: 5.4; pKa ([19]; Titratable groups): 9.4; pKa [19, 22]: 7.9; pKa ([19]; Titratable groups (third printed value)): 9.2; MIC [15]: 0.5 µg/mL (≈ 0.575 µM); MIC [16]: 16 µg/mL (≈ 18.4 µM); MIC (Klebsiella X26): 16 µg/mL (≈ 18.4 µM); MIC [17]: 0.5 µg/mL (≈ 0.575 µM); MIC [18]: 0.25 µg/mL (≈ 0.288 µM)
CCC1OC(=O)CC(O)C(C)C(OC2OC(C)C(O)C(N(C)C)C2O)C(CCN2CC3CCC(C3)C2)CC(C)C(=O)C=CC(C)=CC1COC1OC(C)C(O)C(OC)C1OC (stereo not shown) [Compound D46] | – | – | – | – | – | – | 1.56 (≈ 1.8 µM) | 6.25 (≈ 7.21 µM) | 1.56 (≈ 1.8 µM) | 3.12 (≈ 3.6 µM) | 6.25 (≈ 7.21 µM) | 25 (≈ 28.8 µM) | 12.5 (≈ 14.4 µM) | 0.195 (≈ 0.225 µM) | – | – | – | – | – | – | MIC [20]: 3.12 µg/mL (≈ 3.6 µM); Number of Deaths/Number Treated (Pasteurella multocida [12]): 3/10
CCC1OC(=O)CC(O)C(C)C(OC2OC(C)C(O)C(N(C)C)C2O)C(CCN2CCC3CCCCC3C2)CC(C)C(=O)C=CC(C)=CC1COC1OC(C)C(O)C(OC)C1OC (stereo not shown) [Compound D29, 20-DH-DO-20-(decahydroisoquinolin-2-yl)desmycosin] | 10.3 | 1.56 | 4 (≈ 4.47 µM) | 64 (≈ 71.5 µM) | 0.5 (≈ 0.559 µM) | 0.5 (≈ 0.559 µM) | 1.56 (≈ 1.74 µM) | 6.25 (≈ 6.98 µM) | < 0.048 | 0.195 (≈ 0.218 µM) | 3.12 (≈ 3.49 µM) | 6.25 (≈ 6.98 µM) | 6.25 (≈ 6.98 µM) | 0.195 (≈ 0.218 µM) | 0.5 (≈ 0.559 µM) | 2 (≈ 2.23 µM) | 16 (≈ 17.9 µM) | 64 (≈ 71.5 µM) | 0.5 (≈ 0.559 µM) | 0.5 (≈ 0.559 µM) | MIC [20]: 1.56 µg/mL (≈ 1.74 µM); MIC [21]: 8 µg/mL (≈ 8.94 µM); MIC [15]: 0.5 µg/mL (≈ 0.559 µM); MIC [16]: 4 µg/mL (≈ 4.47 µM); MIC (Klebsiella X26): 32 µg/mL (≈ 35.7 µM); MIC [17]: 0.5 µg/mL (≈ 0.559 µM); MIC [18]: 0.125 µg/mL (≈ 0.14 µM)
